Laboratory results as given in article PMC11726359, “Discovery of Rezatapopt (PC14586), a First-in-Class, Small-Molecule Reactivator of p53 Y220C Mutant in Development” (ACS Medicinal Chemistry Letters, 2024).

How the values were obtained:
[1] = molecular target: T1, recombinant His-tag Y220C p53 DNA binding domain (Homo sapiens, UniProt P04637, Y220C); experiment: TR-FRET DNA binding assay (SC150); type: biochemical; conditions: Table 3; concentration required to increase DNA binding by 1.5-fold
T1 construct: Y220C p53 DBD protein (amino acids #94-312); made in house
Source text: At the outset of our hit generation campaign, several small molecules targeting the p53 Y220C mutant protein were identified. Two notable examples, supported by crystallographic data, were the compounds from the carbazole series[6] (PhiKan83) and the iodophenol series[7] (PK1596) (Figure 1). To assess the in vitro potency of the p53 Y220C reactivators, a time-resolved fluorescence resonance energy transfer (FRET) assay was developed. In this assay, recombinant His-tag Y220C p53 DNA binding domain binds to biotin-labeled consensus DNA, and the FRET signal is measured between the allophycocyanin-conjugated anti-His-tag antibody and europium-conjugated streptavidin. The […] concentration required to increase DNA binding by 1.5-fold (SC150) could then be determined. The carbazole compound (PhiKan83) enhanced DNA binding with an SC150 of 37.2 μM. […]
Time-Resolved Fluorescence Resonance Energy Transfer (TR-FRET) Assay
DNA binding activity was measured by the TR-FRET assay. In this assay, the recombinant His6-tag Y220C p53 DNA binding domain (DBD) protein binds to biotin labeled consensus DNA. The binding of recombinant His6-tag Y220C p53 DBD protein and biotin-labeled consensus DNA is detected by the fluorescence resonance energy transfer (FRET) between allophycocyanin (APC) conjugated anti-His6 tag antibody and Europium-(Eu) conjugated Streptavidin. Test compounds, at 2 mM stock in DMSO, were diluted t hr e e-f ol d in serial dilutions in DMSO and 1.2 µL per well were added into 384-well polypropylene black plates (NUNC). Subsequently, 30 µL per well of 181 nM recombinant His6-tag Y220C p53 DBD protein (amino acids #94-312) and 9.1 nM of APC conjugated anti-His6 tag antibody (Columbia Biosciences) in ice-cold Assay Buffer 1 (50 mM Tris-HCl, pH 7.4, 75 mM KCl, 0.75 mM DTT and 0.2 mg/mL bovine serum albumin [BSA]) was added. As a background control, 30 µL of Assay Buffer 1 containing 9.1 nM of APC anti-His6 antibody (no Y220C protein) was also added into a second set of serial diluted compound plates. The samples were centrifuged at 1,200 rpm (Eppendorf 5810R plate centrifuge) for 1 minute and incubated at room temperature (20 °C) for 15 min. The samples were then incubated at 27 °C in a water bath for 48 min. Afterwards, 5 µL per well of 145 nM biotin labeled oligonucleotide from a consensus DNA p53 response element (a DNA duplex with 5’ to 3’sequence of […]
and biotin attached to the 3’ end of the complementary DNA) and 8.8 nM Eu-conjugated streptavidin (Columbia Biosciences) in Assay Buffer 2 (50 mM Tris-HCl, pH 7.4, 75 mM KCl and 0.2 mg/mL BSA) were added. The samples were centrifuged at 1,200 rpm for 1 min and incubated at room temperature (20 °C) for 20 min. Assay signals were monitored by reading excitation at 340 nm, and emission fluorescence at 615 and 665 nm, on an Envision reader (Perkin El mer). Normalized TR -FRET assay signal (Rn) was calculated by the formula:
Rn = [(A − B a − C × (D − Bd))/(D − Bd)] × (Dc − B d),
C = (Ac − B a)/(Dc − B d), […]

[2] = system: NUGC-3, gastric cancer cell line with a TP53 Y220C mutation; experiment: MTT cell proliferation assay; type: cell-based, human; conditions: Homo sapiens, NUGC-3, 120 h, Table 3; NUGC-3 cells, five days incubation
Experimental: We also evaluated the effects of these compounds on the growth and viability of four cancer cell lines in vitro. Two of the cell lines (NUGC-3, gastric cancer cell line with a TP53 Y220C mutation and T3M-4, pancreatic carcinoma cell line) have the TP53 Y220C mutation leading to the p53 Y220C mutant protein; SJSA-1 is a p53 WT cell line, and NUGC-3-KO is an isogenic p53 knockout cell line.[11] After incubating the cells with the compounds for five days, cell viability was measured using the 3-(4,5-dimethylthiazol-2-yl)-2,5-diphenyltetrazolium bromide (MTT) assay.
C = (Ac − B a)/(Dc − B d),
Prism (GraphPad) or XLfit software (IDBS).
Cells were seeded at an appropriate
Compounds were tested at eight concentrations with 2-fold serial dilutions. […]
with a reference wavelength of 650 nm. […]
untreated cells (control). […]

[3] = system: NUGC-3 tumor xenografts; experiment: NUGC-3 tumor xenograft efficacy in nude mice; type: in vivo, mouse; conditions: for inhibition of tumor growth: oral, daily
Experimental: Compound 26 (rezatapopt; PC14586), which had the most favorable plasma exposure, was evaluated for its ability to inhibit the growth of NUGC-3 tumor xenografts in nude mice.
Study of C ompound 26 in NUGC-3 Xenograft
Female Balb/c nude mice, aged 4 to 6 weeks, were obtained from Envigo (Madison, WI). All mice were housed at the PMV Pharmaceuticals Vivarium. Mouse care and experimental procedures adhered to institutional guidelines for ethical use, with all research protocols approved by the Institutional Animal Care and Use Committees of PMV Pharmaceuticals. The mice were maintained at ambient temperatures of 68–72 °F, with 30–70% humidity, and a 12 -hour dark/light cycle.
NUGC-3 cells were resuspended at a concentration of 1×10^7 viable cells/mL in a 50:50 mixture of phosphate-buffered saline and Matrigel Matrix (Corning). Subsequently, 100 µL of the suspension was injected subcutaneously into the dorsal flankof the mice . Mice were selected and randomized into treatment groups based on tumor size.

[4] = Toxicological studies; conditions: result in words
[5] = system: TP53 Y220C mutant solid tumors; set-up: method as in doi:10.1158/1535-7163.TARG-23-LB_A25; conditions: cited from earlier work
[6] = Pharmacokinetic study in mice; conditions: Table 3, PO, 50 mg/kg
Experimental: Pharmacokinetic parameters were evaluated in female CD-1 mice. Animals received an oral gavage dose of 50 mg/kg of the test article. The test article was formulated in a solution containing 2% hydroxypropyl
cellulose and 0.5% Tween 80 in water. Blood samples were collected at 0.5, 1, 2, 4, 7, and 24 h post dose.
Blood samples were processed into plasma, and the concentrations of the test article were determined by
LC-MS/MS. P harmacokinetic parameters were calculated using the Phoenix WinNonlin 6.3 program,
employing a non- compartmental model 200.

## CNC(=O)c1ccc(NCC#Cc2cc3c(N[C@@H]4CCN(C)C[C@@H]4F)cccc3n2CC(F)(F)F)c(OC)c1 [Compound 26]
[1]
  SC150: 9 nM
[2]
  IC50: 504 nM
[3]; 100 mg/kg, nude mice
  tumor regression: 80%
[3]; mouse models, well-tolerated doses, result in words
  effect on established human tumor xenografts harboring TP53 Y220C: tumor inhibition and regression
[3]; 25 mg/kg, nude mice
  inhibition of tumor growth: 33%
[3]; 50 mg/kg, nude mice
  inhibition of tumor growth: 71%
[4]
  safety profile in toxicological studies: favorable safety profile
[5]; heavily pretreated patients, solid tumors harboring TP53 Y220C, listed as rezatapopt
  clinical efficacy in Phase 1 clinical trials: single-agent clinical efficacy was achieved
[5]; within the efficacious dose range
  safety profile in Phase 1 clinical trials: favorable safety profile
[6]
  Mouse PK Exposure AUC0-last: 163.342 µg·h/mL
  Mouse PK Exposure Cmax: 16600 ng/mL
